# Measurements as given in patent publication US10604742B2, “Adsorptive membranes for trapping viruses” (Wisconsin Alumni Research Foundation, priority 2006, dated 2020).
# Like-named read-outs stand apart in the source and are kept apart here.
# What was measured:
# [1] = molecular target: bovine serum albumin (BSA) (Bos taurus, UniProt P02769); assay: Function test 1: static BSA binding capacity of ligand-functionalized regenerated cellulose membranes (BCA method); conditions: 20 mM piperazine, pH 6.0
# Chain of bovine serum albumin (BSA) (P02769 25-607): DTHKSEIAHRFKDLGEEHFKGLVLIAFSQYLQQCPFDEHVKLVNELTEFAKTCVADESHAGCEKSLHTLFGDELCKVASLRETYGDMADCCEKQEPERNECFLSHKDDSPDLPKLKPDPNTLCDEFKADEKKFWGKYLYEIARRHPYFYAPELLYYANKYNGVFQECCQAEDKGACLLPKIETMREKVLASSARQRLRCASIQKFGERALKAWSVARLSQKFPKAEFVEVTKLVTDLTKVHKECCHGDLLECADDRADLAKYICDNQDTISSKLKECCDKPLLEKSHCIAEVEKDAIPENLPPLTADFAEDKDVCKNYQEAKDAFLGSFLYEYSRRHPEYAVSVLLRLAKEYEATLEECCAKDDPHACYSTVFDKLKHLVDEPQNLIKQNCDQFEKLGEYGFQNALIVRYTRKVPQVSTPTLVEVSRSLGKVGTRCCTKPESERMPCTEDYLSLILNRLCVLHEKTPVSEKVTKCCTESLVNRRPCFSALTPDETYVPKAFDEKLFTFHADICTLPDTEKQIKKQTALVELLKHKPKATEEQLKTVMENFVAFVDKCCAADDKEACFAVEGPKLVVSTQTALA
# Procedure: These ligands were evaluated using two different function tests. In the first function test, bovine serum albumin (BSA) in 20 mM piperazine, pH 6.0, with and without added NaCl, was incubated with a functionalized regenerated cellulose membrane. Bound BSA was then measured using the bicinchoninic acid (BCA) colorimetric method. Function test 1 measured the static protein binding capacity of the membranes under conditions where the pH was close to the isoelectric point of the protein (pI of BSA=5.1). In this function test, the protein had only a weak charge and was sensitive to added salt. This first function test was designed to mimic the binding of a neutral virus where the charge is weak.
# Each ligand was immobilized onto regenerated cellulose membranes having 0.45 μm pore diameter using allyl glycidyl ether. The allylated membrane was then brominated. Lastly the ligand was coupled to the membrane via the primary amine on the ligand.
# neutral virus φX174 [2] = assay: Function test 2: LRV for φX174 using functionalized membranes in flow mode, TE buffer pH 7.5; format: binding, bacteriophage φX174; conditions: for φX174 LRV: TE buffer pH 7.5
# From the text: In these examples, the neutral virus φX174 is used because is one of five model non-pathogenic bacteriophage viruses commonly used in filtration studies to represent the gamut of physical properties of potential adventitious viruses of danger to humans (e.g., size, pI, presence or absence of a membrane). In short, the φX174 virus is an art-recognized virus for modeling viral clearance of dangerous pathogens.
# Function test 2 measured the LRV for the neutral virus φX174 using the functionalized membranes in flow mode with TE buffer (10 mM Tris, 1 mM EDTA, pH 7.5) with and without added NaCl. Each ligand was immobilized onto regenerated cellulose membranes having 0.45 μm pore diameter using allyl glycidyl ether. The allylated membrane was then brominated. Lastly the ligand was coupled to the membrane via the primary amine on the ligand.
# φX174 = conditions: cited from earlier work
# [3] = cited from earlier work
# [4] = high-salt buffer (23 mS/cm); cited from earlier work
# neutral virus φX174 [5] = assay: Example 3: φX174 clearance by AGM membrane in presence of basic protein ribonuclease A (FIG. 10); format: binding, bacteriophage φX174; conditions: 0.5 g/L ribonuclease A, TE buffer pH 7.5, with and without added NaCl
# Procedure: FIG. 10 is a graph depicting the performance of a virus-trapping membrane containing the immobilized ligand agmatine to remove a neutral virus (φX174) from a solution comprising a basic protein (0.5 g/L ribonuclease) and different concentrations of salt (□=0 mM NaCl; ▴=50 mM NaCl; ▪=150 mM NaCl).
# AGM, for example, meets these requirements. […] According to the methods of Example 2, a disposable, micro-porous, regenerated-cellulose virus-trapping membrane was fabricated containing the ligand AGM immobilized on the membrane. The basic protein ribonuclease A (pI˜9.5) was used as a mAb surrogate. A feed solution comprising the neutral virus φX174 and 0.5 g/L of the basic protein ribonuclease A, both dissolved in TE buffer (10 mM Tris, 1 mM EDTA, pH 7.5), with and without added NaCl, was loaded into the membrane. Viral clearance was not reduced by the presence of the basic protein.
SMILES,BSA Static Capacity ([1]; 0 mM NaCl),BSA Static Capacity ([1]; 50 mM NaCl),BSA Static Capacity ([1]; 150 mM NaCl),φX174 LRV (neutral virus φX174 [2]; 0 mM NaCl),φX174 LRV (neutral virus φX174 [2]; 50 mM NaCl),φX174 LRV (neutral virus φX174 [2]; 150 mM NaCl),φX174 clearance (LRV) in the presence of salt (neutral virus φX174 [2]; in the presence of salt (50 and 150 mM)),salt tolerance of viral clearance (neutral virus φX174 [2]; moderate salt concentration),viral clearance of φX174 (LRV) (φX174; 0 mM salt),"viral clearance of φX174 (LRV) (φX174; 0 mM salt, listed as “MUSTANG”® Q-brand adsorptive ligand)",viral clearance of φX174 (LRV) (φX174; 50 mM salt),"viral clearance of φX174 (LRV) (φX174; 50 mM salt, listed as “MUSTANG”® Q-brand adsorptive ligand)",pKa [3],charge at neutral pH [3],dynamic binding capacity greater than the average of the five best non-aromatic anion-exchange ligands [4],dynamic binding capacity relative to the Q ligand [4],viral clearance (LRV) of φX174 after adding the basic protein (neutral virus φX174 [5])
"C[N+](C)(C)CCN.[Cl-] [AETMA, 2-aminoethyltrimethylammonium chloride, reference compound]",551 mg/m^2,42 mg/m^2,10 mg/m^2,6.6,0.1,0.1,≈ 0.1,not salt tolerant,six,6 LRV,1 LRV,less than 1 LRV,>12,–,–,–,–
"NCC(O)c1ccc(O)cc1 (stereo not shown) [OCT, Octopamine]",280 mg/m^2,290 mg/m^2,250 mg/m^2,5.4,1.1,0.7,–,–,–,–,–,–,–,–,–,–,–
"NCC(O)CN [DHP, 1,3-diamino-2-hydroxypropane]",946 mg/m^2,392 mg/m^2,85 mg/m^2,5.4,2.1,0.1,–,–,–,–,–,–,–,–,–,–,–
"N[C@H](CO)Cc1ccc(O)cc1 [TYR, Tyrosinol]",638 mg/m^2,284 mg/m^2,137 mg/m^2,6.4,2.7,0.9,–,–,–,–,–,–,10.8,positively charged,63%,36 times,–
"N[C@H](CO)Cc1ccccc1 [PHA, Phenylalaninol]",330 mg/m^2,46 mg/m^2,10 mg/m^2,2.8,0.1,0.0,–,–,–,–,–,–,–,–,–,–,–
"Nc1nc2ccccc2[nH]1 [ABI, 2-aminobenzimidazole]",414 mg/m^2,204 mg/m^2,108 mg/m^2,5.4,1.8,1.0,–,–,–,–,–,–,–,–,–,–,–
"N[C@H](CO)Cc1c[nH]c2ccccc12 [TRP, Tryptophanol]",668 mg/m^2,297 mg/m^2,131 mg/m^2,5.4,1.1,1.0,–,–,–,–,–,–,–,–,–,–,–
"N=C(N)NCCCCN [AGM, Agmatine]",1000 mg/m^2,319 mg/m^2,116 mg/m^2,5.5,5.5,5.9,–,–,–,–,–,–,–,positive charge,–,–,≈ 6.0
"NCCN(CCN)CCN [TAEA, tris(2-aminoethyl)amine]",–,–,–,7.6,5.8,5.1,–,–,–,–,–,–,–,–,–,–,–
